Laboratory results: patent US9723838B2, “Pyrazolyl amide compounds and uses thereof” (SHENYANG SINOCHEM AGROCHEMICALS R&D CO., LTD., priority 2013, dated 2017)
Like-named read-outs stand apart in the source and are kept apart here.

Assays:
army worm = test: Test against army worm (corn leaf spraying); assay type: in vivo; conditions: for Mortality (%): parallel test
Procedure: The test method is spraying. The middle part of fresh corn leaves were chosen and cut into 3 cm sects. The test compounds were sprayed on both sides of the sects by Airbrush according to the designed concentration from low to high dose. The sects were placed in 6 cm diameter Petri dish with filter paper. Ten test insects (3 instar) were introduced on each treatment after drying. Each treatment set the pure water as CK. The treated sects were placed in a certain condition. After 72 h, the number of surviving insects was investigated and the mortality rates were calculated.

green peach aphid = test: Test against green peach aphid (spraying); assay type: in vivo; conditions: for mortality at 2.5 ppm / mortality at 5 ppm / mortality at 10 ppm / mortality at 100 ppm / mortality at 600 ppm: Myzus persicae; for mortality at 100 ppm / mortality at 600 ppm: read-out: mortality against green peach aphid; for Mortality (%): parallel test
Procedure: According to the solubility of test compounds, the compounds are dissolved in acetone or dimethyl sulfoxide, and then diluted with 0.1% aqueous solution of Tween 80 to form the test liquid 50 ml, the content of acetone or dimethyl sulfoxide in the total solution is not more than 10%.
The 6 cm diameter Petri dish with a layer of filter paper was chosen, a moderate amount of water was added to preserve moisture. A suitable piece of cabbage leaf with 30-50 green peach aphids was excised from a culture plant. Remove the winged and positive aphids, the leaf was placed to the Petri dish above with back upward. The test compounds were sprayed on both sides of the leaf by Airbrush (spray pressure: 10 psi, equate to 0.7 kg/cm^2; spray volume: 0.5 mL; spray distance: 15-20 cm). The treated Petri dishes were placed in a chamber of 23-25° C., 40%-60% relative humidity, L/D 13 h: 11 h. To keep the leaf fresh, a moderate amount of water was added to the Petri dish during the observation. After 48 h, the number of surviving insects was investigated and the mortality rates were calculated.

black bean aphid = test: Test of absorption activity (horsebean seedling, solution poured into cup); assay type: in vivo; conditions: Aphis fabae, after 48 h; for mortality at 0.625 µg/mL: 0.625 mg/L; for mortality at 2.5 µg/mL: 2.5 mg/L; for mortality at 10 µg/mL: 10 mg/L
Procedure: The 3 cm horsebean seedling that pre-infested by a certain number of black bean aphids (2 days instar) was chosen and transplanted to a paper cup loaded with fine sand. According to the test, the test compounds were treated to a solution and poured into the cup. After 48 h, the number of surviving insects was investigated and the mortality rates were calculated.

diamondback moth = test: Test against diamondback moth (leaf disc spraying); assay type: in vivo; conditions: for mortality at 0.156 ppm / mortality at 0.313 ppm / mortality at 0.63 ppm / mortality at 10 ppm / mortality at 100 ppm: Plutella xylostella, foliar; for mortality at 10 ppm / mortality at 100 ppm: read-out: mortality against diamondback moth; for Mortality (%): parallel test
Source text: The test method is spraying. The leaves of cabbage grown in greenhouse were chosen, removed the surface waxy layer and perforated to get 3 cm diameter leaf discs by the hole puncher. The test compounds were sprayed on both sides of the discs by Airbrush according to the designed concentration from low to high dose. The cabbage discs were placed in 6 cm diameter Petri dish with filter paper. Tentest insects (3 instar) were introduced on each treatment after drying. Each treatment set the pure water as CK. The treated discs were placed in a certain condition. After 72 h, the number of surviving insects was investigated and the mortality rates were calculated.

cabbage aphids = test: Field test against cabbage aphids; assay type: in vivo
Procedure: The test was carried out in the institute of Vegetables and Flowers Chinese Academy of Agriculture Sciences Nankou base, using cabbages (JINGFENG) as the test plant. The test compounds dosage were 15 g a.i./hm^2 and 10% Cyantraniliprole SC dosage was 30 g a.i./hm^2 which were sprayed evenly to the whole plant using backpack manual sprayer (“MATABI” SUPER GREEN 16) at the spray volume of 750 L/hm^2. Each treatment repeated 4 times, arranged with randomized blocks. 5 spots were chosen from each area using diagonal method, each spot contains 2 cabbages, the 10 cabbages above were investigated in the area. The number of initial cabbage aphids was investigated before spraying. After 1 day, 3 days, 7 days, 14 days, the number of surviving aphids was investigated respectively and the control efficiency were calculated. decline ratio of insect (%)=(insect number before pesticide application−insect number after pesticide application)/(insect number before pesticide application)×100% control efficiency (%)=(treatment area decline ratio of insect−CK area decline ratio of insect)/(100−CK area decline ratio of insect)×100% Calculation Method:
10% Cyantraniliprole SC was bought from DuPont Agricultural Chemicals Ltd., Shanghai.

diamond back moth = conditions: disclosed in CN1653051A; cited from earlier work
armyworm = conditions: disclosed in CN1653051A; cited from earlier work
apple tree aphids = test: Field test against apple tree aphids; assay type: in vivo; conditions: for mortality at 25 µg/mL: dose 25 mg/L; for mortality at 50 µg/mL: dose 50 mg/L
Procedure: The test was carried out in the institute of pomology of CAAS orchard in June 2014, using starkrimson as the test sample, the apple tree aphids were in preliminary stage. The test method is spraying using the stretcher power sprayer (ZL-22-160), each treatment repeated 4 times. The number of initial aphids was investigated before spraying. After 2 days, 7 days, 14 days, the number of surviving aphids was investigated respectively and the control efficiency were calculated. 10% Cyantraniliprole SC was commercial available which was bought from DuPont Agricultural Chemicals Ltd., Shanghai.

[1] = 72 h, read-out: mortality against army worm
[2] = 10 ppm, spraying, after 72 h, read-out: mortality against army worm
[3] = 100 ppm, spraying, after 72 h, read-out: mortality against army worm

CC(C)(NC(=O)c1cc(Cl)cc(Cl)c1NC(=O)c1cc(Br)nn1-c1ncccc1Cl)C(N)=O [Compound 1.4]
mortality at 2.5 ppm (army worm; 72 h): 50% | mortality at 5 ppm (army worm; 72 h): 86.6% | mortality at 10 ppm (army worm; 72 h): 92.8% | mortality at 10 ppm (army worm; [1]): ≥ 80% | mortality at 100 ppm (army worm; [1]): ≥ 80% | mortality at 2.5 ppm (green peach aphid; 48 h): 90.1% | mortality at 5 ppm (green peach aphid; 48 h): 100% | mortality at 10 ppm (green peach aphid; 48 h): 100% | mortality at 100 ppm (green peach aphid; 48 h): ≥ 80% | mortality at 600 ppm (green peach aphid; 48 h): ≥ 80% | mortality at 0.625 µg/mL (black bean aphid): 100% | mortality at 2.5 µg/mL (black bean aphid): 100% | mortality at 10 µg/mL (black bean aphid): 100% | mortality at 0.156 ppm (diamondback moth; 72 h): 100% | mortality at 0.313 ppm (diamondback moth; 72 h): 100% | mortality at 0.63 ppm (diamondback moth; 72 h): 100% | mortality at 10 ppm (diamondback moth; 72 h): ≥ 80% | mortality at 100 ppm (diamondback moth; 72 h): ≥ 80% | Mortality (%) (cabbage aphids; dose 15 g a.i./hm^2, 1 d): 84.40 abc % | Mortality (%) (cabbage aphids; dose 15 g a.i./hm^2, 3 d): 91.03 ab % | Mortality (%) (cabbage aphids; dose 15 g a.i./hm^2, 7 d): 95.58 ab % | Mortality (%) (cabbage aphids; dose 15 g a.i./hm^2, 14 d): 91.79 ab %

CC1(C)N=C(c2cc(Cl)cc(Cl)c2NC(=O)c2cc(Br)nn2-c2ncccc2Cl)NC1=O [Compound 1.21]
mortality at 10 ppm (army worm; [2]): ≥ 80% | mortality at 100 ppm (army worm; [3]): ≥ 80% | mortality at 600 ppm (green peach aphid; 600 ppm, spraying, after 48 h): ≥ 80% | mortality at 10 ppm (diamondback moth; 10 ppm, spraying, after 72 h): ≥ 80% | mortality at 100 ppm (diamondback moth; 100 ppm, spraying, after 72 h): ≥ 80%

CC(NC(=O)c1cc(Br)cc(Br)c1NC(=O)c1cc(Br)nn1-c1ncccc1Cl)C(N)=O (centres unmarked) [KC1, reference compound]
mortality at 2.5 ppm (army worm; 72 h): 0% | mortality at 5 ppm (army worm; 72 h): 0% | mortality at 10 ppm (army worm; 72 h): 18% | mortality at 2.5 ppm (green peach aphid; 48 h): 0% | mortality at 5 ppm (green peach aphid; 48 h): 0% | mortality at 10 ppm (green peach aphid; 48 h): 15.1% | insecticidal activity against diamond back moth (diamond back moth): high activity | mortality at 0.156 ppm (diamondback moth; 72 h): 0% | mortality at 0.313 ppm (diamondback moth; 72 h): 20% | mortality at 0.63 ppm (diamondback moth; 72 h): 33.3% | insecticidal activity against armyworm (armyworm): high activity

CC1(C)N=C(c2cc(Br)cc(Br)c2NC(=O)c2cc(Br)nn2-c2ncccc2Cl)NC1=O [Compound 1.27]
mortality at 10 ppm (army worm; [2]): ≥ 80% | mortality at 100 ppm (army worm; [3]): ≥ 80% | mortality at 100 ppm (green peach aphid; 100 ppm, spraying, after 48 h): ≥ 80% | mortality at 600 ppm (green peach aphid; 600 ppm, spraying, after 48 h): ≥ 80% | mortality at 10 ppm (diamondback moth; 10 ppm, spraying, after 72 h): ≥ 80% | mortality at 100 ppm (diamondback moth; 100 ppm, spraying, after 72 h): ≥ 80%

CC(C)(NC(=O)c1cc(F)cc(Cl)c1NC(=O)c1cc(Br)nn1-c1ncccc1Cl)C(N)=O [Compound 1.8]
Mortality (%) (army worm; 2.5 ppm, after 72 h): 43.7% | Mortality (%) (army worm; 5 ppm, after 72 h): 50.0% | Mortality (%) (army worm; 10 ppm, after 72 h): 100% | Mortality (%) (green peach aphid; 2.5 ppm, after 48 h): 89.3% | Mortality (%) (green peach aphid; 5 ppm, after 48 h): 100.0% | Mortality (%) (green peach aphid; 10 ppm, after 48 h): 100.0% | Mortality (%) (diamondback moth; 0.156 ppm, after 72 h): 52.1% | Mortality (%) (diamondback moth; 0.313 ppm, after 72 h): 75% | Mortality (%) (diamondback moth; 0.63 ppm, after 72 h): 100%

CNC(=O)c1cc(C#N)cc(C)c1NC(=O)c1cc(Br)nn1-c1ncccc1Cl [Cyantraniliprole, reference compound]
mortality at 0.625 µg/mL (black bean aphid): 30% | mortality at 2.5 µg/mL (black bean aphid): 54.6% | mortality at 10 µg/mL (black bean aphid): 100%

CC(C)(NC(=O)c1cc(Cl)cc(Cl)c1NC(=O)c1cc(Cl)nn1-c1ncccc1Cl)C(N)=O [Compound 1.3]
mortality at 2.5 ppm (army worm; 72 h): 64.3% | mortality at 5 ppm (army worm; 72 h): 81.2% | mortality at 10 ppm (army worm; 72 h): 100% | mortality at 10 ppm (army worm; [1]): ≥ 80% | mortality at 100 ppm (army worm; [1]): ≥ 80% | mortality at 25 µg/mL (apple tree aphids; 48 h, 2 day): 78.9% | mortality at 50 µg/mL (apple tree aphids; 48 h, 2 day): 83.5% | mortality at 25 µg/mL (apple tree aphids; 168 h, 7 day): 93.5% | mortality at 50 µg/mL (apple tree aphids; 168 h, 7 day): 96.1% | mortality at 25 µg/mL (apple tree aphids; 336 h, 14 day): 93.1% | mortality at 50 µg/mL (apple tree aphids; 336 h, 14 day): 96.7% | mortality at 2.5 ppm (green peach aphid; 48 h): 100% | mortality at 5 ppm (green peach aphid; 48 h): 100% | mortality at 10 ppm (green peach aphid; 48 h): 100% | mortality at 100 ppm (green peach aphid; 48 h): ≥ 80% | mortality at 600 ppm (green peach aphid; 48 h): ≥ 80% | mortality at 0.625 µg/mL (black bean aphid): 100% | mortality at 2.5 µg/mL (black bean aphid): 100% | mortality at 10 µg/mL (black bean aphid): 100% | mortality at 0.156 ppm (diamondback moth; 72 h): 87.5% | mortality at 0.313 ppm (diamondback moth; 72 h): 100% | mortality at 0.63 ppm (diamondback moth; 72 h): 100% | mortality at 10 ppm (diamondback moth; 72 h): ≥ 80% | mortality at 100 ppm (diamondback moth; 72 h): ≥ 80% | Mortality (%) (cabbage aphids; dose 15 g a.i./hm^2, 1 d): 80.78 c % | Mortality (%) (cabbage aphids; dose 15 g a.i./hm^2, 3 d): 87.22 b % | Mortality (%) (cabbage aphids; dose 15 g a.i./hm^2, 7 d): 92.57 ab % | Mortality (%) (cabbage aphids; dose 15 g a.i./hm^2, 14 d): 91.77 ab %

CC(C)(NC(=O)c1cc(Br)cc(Br)c1NC(=O)c1cc(Br)nn1-c1ncccc1Cl)C(N)=O [Compound 1.10]
mortality at 2.5 ppm (army worm; 72 h): 62.5% | mortality at 5 ppm (army worm; 72 h): 87.5% | mortality at 10 ppm (army worm; 72 h): 100% | mortality at 100 ppm (army worm; [1]): ≥ 80% | mortality at 2.5 ppm (green peach aphid; 48 h): 100% | mortality at 5 ppm (green peach aphid; 48 h): 100% | mortality at 10 ppm (green peach aphid; 48 h): 100% | mortality at 100 ppm (green peach aphid; 48 h): ≥ 80% | mortality at 600 ppm (green peach aphid; 48 h): ≥ 80% | mortality at 0.156 ppm (diamondback moth; 72 h): 62.5% | mortality at 0.313 ppm (diamondback moth; 72 h): 81.3% | mortality at 0.63 ppm (diamondback moth; 72 h): 100% | mortality at 10 ppm (diamondback moth; 72 h): ≥ 80% | mortality at 100 ppm (diamondback moth; 72 h): ≥ 80%

CC1(C)N=C(c2cc(Cl)cc(Cl)c2NC(=O)c2cc(Cl)nn2-c2ncccc2Cl)NC1=O [Compound 1.20]
mortality at 10 ppm (army worm; [2]): ≥ 80% | mortality at 100 ppm (army worm; [3]): ≥ 80% | mortality at 100 ppm (green peach aphid; 100 ppm, spraying, after 48 h): ≥ 80% | mortality at 600 ppm (green peach aphid; 600 ppm, spraying, after 48 h): ≥ 80% | mortality at 10 ppm (diamondback moth; 10 ppm, spraying, after 72 h): ≥ 80% | mortality at 100 ppm (diamondback moth; 100 ppm, spraying, after 72 h): ≥ 80%
